{"source": "patent US20110150980A1", "about": "“CGRP ANALOG” (VasoGenix Pharmaceuticals, Inc., priority 2009, published 2011)", "key": {"[1]": {"tested_on": "non-sedated, non-naïve cynomolgus monkeys", "test": "Intravenous infusion in non-sedated, telemeterized non-human primates: blood pressure, heart rate, ECG (Example 2)", "format": "in vivo", "description": "Peptides were synthesized as in Example 1. […] Two non-naïve, telemeterized, male non-human primates (NHP “a” and “b”) were used for the test article(s) dosing regimen. […] Following a stabilized baseline period of approximately 30 minutes, one of the test article(s) was administered as an intravenous infusion via a femoral vein vascular access port (VAP) using a Pegasus PCA infusion pump for a period of 30 or 60 minutes. A minimum period of 30 minutes was allotted for the hemodynamic parameters to return to baseline prior to the next test article infusion dose. The process was repeated for each of the stated test articles. The same procedure was followed for the 1 hour infusion with 1 hour allotted for parameters to return to base line.\nThe non-human primates were previously surgically prepared with telemetry transducers, type TL11M2-D70-PCT (Data Sciences International). The acquisition and analysis was done using a Ponemah (Version 4.8 or higher) data acquisition and analysis system installed on the hard drive of a computer. The computer was equipped with disk drive for file back up on readable write-once only optical media (CD-R or DVD-R).\nPrior to the first dose administration, baseline data was acquired. For each subsequent dose, data was collected for approximately 30 min postdose. Prior to the next dose, the hemodynamic parameters were allowed to return to a stable baseline±10%.\nSystolic blood pressure (SYS or SBP), diastolic blood pressure (DBP), mean arterial pressure (MAP), heart rate (HR), and all lead II ECG variables were recorded. The telemetry data files were transferred to an Excel (MicroSoft® Version 2003) spreadsheet. The following variables from the lead II ECG were measured: PR interval, QRS duration, QT interval, RR interval, and QTcF interval (calculated as\nA visual inspection of the entire collected ECG waveform for disturbances in rhythm and waveform morphology was performed. The data for selected time points were analyzed and assessed on completion of data acquisition and were the average of at least 30 beats (ABP and ECG) of data at the selected analysis time, when possible. The time points for both hemodynamic and ECG data analysis were an initial 30 min baseline prior to the first dose, at a 10 min during each infusion postdose interval relative to end of each infusion, and time points prior to the next test article infusion for each test compound.\nNon-human primates were selected because they have the same RAMP 1-CGRP receptor complex as humans."}, "[2]": {"tested_on": "rats", "conditions": "19 ng/kg/min; cited from earlier work"}, "[3]": {"conditions": "NHP a, dose day 2, during 30 minute infusions of 0.024 ug/kg/min"}, "[4]": {"conditions": "NHP a, dose day 3, during 30 minute infusions of 0.024 ug/kg/min"}, "[5]": {"conditions": "NHP a, dose day 3, during 1 hour infusion of 0.024 ug/kg/min"}, "[6]": {"conditions": "NHP b, dose day 2, during 30 minute infusions of 0.024 ug/kg/min"}, "[7]": {"conditions": "NHP b, dose day 3, during 30 minute infusions of 0.024 ug/kg/min"}, "[8]": {"conditions": "NHP b, dose day 3, during 1 hour infusion of 0.024 ug/kg/min"}, "[9]": {"conditions": "average of a 2, b 2, a 3, b 3, during 30 minute infusions of 0.024 ug/kg/min"}, "[10]": {"conditions": "average of a3, b3, during 1 hour infusion of 0.024 ug/kg/min"}}, "data": [{"substance": "ACNTATCVTHRLAGLLSRSGGMVKSNFVPTNVGSKAF-NH2 [βCGRP]", "values": [{"measurement": "course of heart rate during 1 hour infusion", "setting": "[1]; 1 hour infusion of 0.024 ug/kg/min, after 30 minutes", "value": "Heart rate continues to drop after 30 minutes"}, {"measurement": "Percent change in HR, a 2", "setting": "[1]; [3]", "value": 1.2, "unit": "%"}, {"measurement": "Percent change in mean BP, a 2", "setting": "[1]; [3]", "value": "−8.8", "unit": "%"}, {"measurement": "Percent change in systolic BP, a 2", "setting": "[1]; [3]", "value": "−7.4", "unit": "%"}, {"measurement": "Percent change in HR, a 3", "setting": "[1]; [4]", "value": "−13.6", "unit": "%"}, {"measurement": "Percent change in mean BP, a 3", "setting": "[1]; [4]", "value": "−16.8", "unit": "%"}, {"measurement": "Percent change in systolic BP, a 3", "setting": "[1]; [4]", "value": "−12.2", "unit": "%"}, {"measurement": "Percent change in HR at 30 minutes, a3", "setting": "[1]; [5]", "value": "−13.6", "unit": "%"}, {"measurement": "Percent change in HR at 60 minutes, a3 1 hr", "setting": "[1]; [5]", "value": "−10.7", "unit": "%"}, {"measurement": "Percent change in mean systolic BP at 30 minutes, a3", "setting": "[1]; [5]", "value": "−16.8", "unit": "%"}, {"measurement": "Percent change in mean systolic BP at 60 minutes, a3 1 hr", "setting": "[1]; [5]", "value": 0.0, "unit": "%"}, {"measurement": "Percent change in systolic BP at 30 minutes, a3", "setting": "[1]; [5]", "value": "−12.2", "unit": "%"}, {"measurement": "Percent change in systolic BP at 60 minutes, a3 1 hr", "setting": "[1]; [5]", "value": "−0.8", "unit": "%"}, {"measurement": "Percent change in HR, b 2", "setting": "[1]; [6]", "value": "−21.3", "unit": "%"}, {"measurement": "Percent change in mean BP, b 2", "setting": "[1]; [6]", "value": "−6.7", "unit": "%"}, {"measurement": "Percent change in systolic BP, b 2", "setting": "[1]; [6]", "value": "−8.1", "unit": "%"}, {"measurement": "Percent change in HR, b 3", "setting": "[1]; [7]", "value": "−22.0", "unit": "%"}, {"measurement": "Percent change in mean BP, b 3", "setting": "[1]; [7]", "value": "−23.4", "unit": "%"}, {"measurement": "Percent change in systolic BP, b 3", "setting": "[1]; [7]", "value": "−23.2", "unit": "%"}, {"measurement": "Percent change in HR at 30 minutes, b3", "setting": "[1]; [8]", "value": "−22.0", "unit": "%"}, {"measurement": "Percent change in HR at 60 minutes, b3 1 hr", "setting": "[1]; [8]", "value": "−18.1", "unit": "%"}, {"measurement": "Percent change in mean systolic BP at 30 minutes, b3", "setting": "[1]; [8]", "value": "−23.4", "unit": "%"}, {"measurement": "Percent change in mean systolic BP at 60 minutes, b3 1 hr", "setting": "[1]; [8]", "value": "−10.7", "unit": "%"}, {"measurement": "Percent change in systolic BP at 30 minutes, b3", "setting": "[1]; [8]", "value": "−23.2", "unit": "%"}, {"measurement": "Percent change in systolic BP at 60 minutes, b3 1 hr", "setting": "[1]; [8]", "value": "−10.1", "unit": "%"}, {"measurement": "Percent change in mean HR, a 2", "setting": "[1]; Table 14, NHP a, dose day 2, during 30 minute infusions of 0.024 ug/kg/min", "value": 1.2, "unit": "%"}, {"measurement": "Percent change in mean HR, a 3", "setting": "[1]; Table 14, NHP a, dose day 3, during 30 minute infusions of 0.024 ug/kg/min", "value": "−13.6", "unit": "%"}, {"measurement": "Percent change in mean HR, b 2", "setting": "[1]; Table 14, NHP b, dose day 2, during 30 minute infusions of 0.024 ug/kg/min", "value": "−21.3", "unit": "%"}, {"measurement": "Percent change in mean HR, b 3", "setting": "[1]; Table 14, NHP b, dose day 3, during 30 minute infusions of 0.024 ug/kg/min", "value": "−22.0", "unit": "%"}, {"measurement": "Percent change in mean HR, HR", "setting": "[1]; Table 14, average of a 2, b 2, a 3, b 3, during 30 minute infusions of 0.024 ug/kg/min", "value": "−13.9", "unit": "%"}, {"measurement": "Percent change in mean HR at 30 minutes, a3", "setting": "[1]; Table 24, NHP a, dose day 3, during 1 hour infusion of 0.024 ug/kg/min", "value": "−13.6", "unit": "%"}, {"measurement": "Percent change in mean HR at 30 minutes, b3", "setting": "[1]; Table 24, NHP b, dose day 3, during 1 hour infusion of 0.024 ug/kg/min", "value": "−22.0", "unit": "%"}, {"measurement": "Percent change in mean HR at 30 minutes, HR T30", "setting": "[1]; Table 24, average of a3, b3, during 1 hour infusion of 0.024 ug/kg/min", "value": "−17.8", "unit": "%"}, {"measurement": "Percent change in mean HR at 60 minutes, a3 1 hr", "setting": "[1]; Table 25, NHP a, dose day 3, during 1 hour infusion of 0.024 ug/kg/min", "value": "−10.7", "unit": "%"}, {"measurement": "Percent change in mean HR at 60 minutes, b3 1 hr", "setting": "[1]; Table 25, NHP b, dose day 3, during 1 hour infusion of 0.024 ug/kg/min", "value": "−18.1", "unit": "%"}, {"measurement": "Percent change in mean HR at 60 minutes, HR T60", "setting": "[1]; Table 25, average of a3, b3, during 1 hour infusion of 0.024 ug/kg/min", "value": "−14.4", "unit": "%"}, {"measurement": "Percent change in HR, HR", "setting": "[1]; [9]", "value": "−13.9", "unit": "%"}, {"measurement": "Percent change in mean BP, BP", "setting": "[1]; [9]", "value": "−13.9", "unit": "%"}, {"measurement": "Percent change in systolic BP, BP", "setting": "[1]; [9]", "value": "−12.7", "unit": "%"}, {"measurement": "Percent change in HR at 30 minutes, HR T30", "setting": "[1]; [10]", "value": "−17.8", "unit": "%"}, {"measurement": "Percent change in HR at 60 minutes, HR T60", "setting": "[1]; [10]", "value": "−14.4", "unit": "%"}, {"measurement": "Percent change in mean systolic BP at 30 minutes, BP T30", "setting": "[1]; [10]", "value": "−20.1", "unit": "%"}, {"measurement": "Percent change in mean systolic BP at 60 minutes, BP T60", "setting": "[1]; [10]", "value": "−5.4", "unit": "%"}, {"measurement": "Percent change in systolic BP at 30 minutes, T30", "setting": "[1]; [10]", "value": "−17.7", "unit": "%"}, {"measurement": "Percent change in systolic BP at 60 minutes, T60", "setting": "[1]; [10]", "value": "−5.4", "unit": "%"}, {"measurement": "effect on heart rate", "setting": "[1]; non-sedated cynomolgus monkeys, IV infusion", "value": "maintenance of pre-administration heart rate, and in some cases, reduction in heart rate"}, {"measurement": "heart rate and blood pressure effect", "setting": "[2]", "value": "tachycardia with no significant hypotension"}]}]}
